Data reported in patent US10808008B2, “Aromatic-cationic peptides and uses of same” (Cornell University, priority 2012, dated 2020).
Where no end group is shown, it is not given here. [ ]: non-standard residue; d: D form.

Key:
cytochrome c = cytochrome c (Equus caballus, UniProt P00004); test: Cytochrome c reduction kinetics (absorption spectroscopy); assay type: biochemical; conditions: glutathione (GSH) as reducing agent; absorbance at 550 nm
Method: Increasing amounts of aromatic-cationic peptides were added to a solution of oxidized cytochrome c. The formation of reduced cytochrome c was monitored by absorbance at […]. The rate of cytochrome c reduction was determined by non-linear analysis (Prizm software).
Time-resolved UV-Visible absorption spectroscopy was used to study the electron transport process of cytochrome c in the presence of peptides. Reduced cytochrome c was monitored by absorbance at a broad-band spectral range (200-1100 nm). The absorption changes were recorded with a UV/Visible spectrophotometer (Ultrospec 3300 pro, GE) in quartz cells with path lengths of 1 or 2 mm. N-acetylcysteine (NAC) and glutathione were used as electron donors to reduce oxidized cytochrome c. The rate constant of cytochrome c reduction was estimated by adding various concentrations of peptides. The dose dependence of the peptides was correlated to the cytochrome c reduction kinetics.
Absorption spectroscopy (UltroSpec 3300 Pro; 220-1100 nm) was used to determine if SS-31 modulates cytochrome c reduction (FIG. 1). Reduction of cytochrome c with glutathione is associated with multiple shifts in the Q band (450-650 nm), with a prominent shift at 550 nm. […] Accordingly, the aromatic-cationic peptides of the present disclosure are useful for altering the structure and oxidation state of cytochrome c, and are useful for the prevention or treatment of diseases or disorders characterized by dysregulation of cytochrome c.
Reduction of cytochrome c was monitored by increase in absorbance at 550 nm. […] Similar results were obtained using N-acetylcysteine (NAC) as a reducing agent (not shown). […] Accordingly, aromatic-cationic peptides of the present disclosure are useful for the prevention or treatment of diseases or disorders characterized by dysregulation of cytochrome c and are useful for facilitating cytochrome c reduction.

[1] = test system: isolated rat kidney mitochondria; test: O2 consumption in isolated mitochondria; assay type: biochemical; conditions: 400 μM ADP
Method: (§1) Fresh mitochondria were isolated from rat kidney as described previously. Electron flux was measured by O2 consumption (Oxygraph Clark electrode) as previously described using different substrates for C1 (glutamate/malate), C2 (succinate), and C3 (TMPD/ascorbate). Assays were carried out under low substrate conditions in order to avoid saturating the enzyme reactions. ATP production in isolated mitochondria was determined kinetically using the luciferase method (Biotherma) in a 96-well luminescence plate reader (Molecular Devices). The initial maximal rate for ATP synthesis was determined over the first minute.
Oxygen consumption of isolated rat kidney mitochondria was determined using the Oxygraph (FIG. 5). Rates of respiration were measured in the presence of different concentrations of SS-31 in state 2 (400 μM ADP only), state 3 (400 μM ADP and 500 μM substrates) and state 4 (substrates only). All experiments were done in triplicate with n=4−7. […] Accordingly, aromatic-cationic peptides of the present disclosure are useful for promoting electron transfer to oxygen without uncoupling mitochondria, increasing O2 consumption, and treating diseases or conditions related to dysregulation of O2 consumption in mitochondria.
(§2) SS-20 or SS-31 was added at 100 μM concentrations to isolated mitochondria in respiration buffer containing 0.5 mM succinate (complex II substrate) and 400 μM ADP. Similar increases in O2 consumption were observed when low concentrations of complex I substrates (glutamate/malate) were used (data not shown). […] Accordingly, targeting SS-20 and SS-31 to the IMM can facilitate electron flux in the electron transport chain and improve ATP synthesis, especially under conditions of reduced substrate supply.
SS-20 or SS-31 was added at 10 μM or 100 μM concentrations to isolated mitochondria in respiration buffer containing glutamate/malate (complex I substrate), 0.5 mM succinate (complex II substrate) or 3 μM TMPD/1 mM ascorbate (direct reductant of cytochrome c). 400 μM ADP was added to initiate State 3 respiration.

[2] = target: cytochrome c/cardiolipin complex (Equus caballus, UniProt P00004); test: Soret circular dichroism of cytochrome c with cardiolipin; assay type: biochemical; conditions: 10 μM cytochrome c, 30 μg/ml CL, 10 μM peptide; 20 mM HEPES pH 7.5, 25° C.
Chain of cytochrome c/cardiolipin complex (P00004 2-105 limits assumed, one chain of several): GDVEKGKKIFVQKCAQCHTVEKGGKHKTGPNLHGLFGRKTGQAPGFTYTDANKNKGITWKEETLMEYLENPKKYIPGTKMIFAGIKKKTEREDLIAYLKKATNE
Method: Circular dichroism (CD) was carried out to examine the effects of the peptides on protecting the heme environment of cytochrome c from the acyl chain of CL. For heme proteins, the Soret CD spectrum is strictly correlated with the heme pocket conformation. In particular, the negative 416-420 nm Cotton effect is considered diagnostic of Fe(III)-Met80 coordination in native cytochrome c (Santucci and Ascoli, 1997). […] CD spectra were obtained using AVIV CD Spectrometer Model 410.
Changes in the Soret CD spectrum of cytochrome c (10 μM) were recorded in the absence (dotted line) and presence (dashed line) of 30 μg/ml CL, plus addition of different peptides (10 μM) (solid line) (FIG. 14). CD measurements were carried out using 20 mM HEPES, pH 7.5, at 25° C. and expressed as molar ellipticity (A) (m Deg). […] Accordingly, aromatic-cationic peptides of the present disclosure are useful for the prevention or treatment of diseases or disorders characterized by dysregulation of cardiolipin and/or cytochrome c, and/or diseases or disorders characterized by dysregulation of the cardiolipin/cytochrome c interaction. In addition, aromatic-cationic peptides of the present disclosure are useful to protect the heme environment of cytochrome c from the acyl chain of cardiolipin.
Circular Dichroism (CD) spectra were collected with an AVIA 62 DS spectrophotometer equipped with a sample temperature controller. CD spectra of the Soret region (370-450 nm) were recorded with 10-mm path length cells containing 20 mM Hepes, pH 7.4, and 10 μM cytochrome c, in the presence or absence of 30 μg/ml cardiolipin and different SS peptide analogs (SS-02, [atn]SS-02, [ald]SS-02, and SS-31). The maximum lipid concentration was kept low to avoid spectral distortions due to excessive light scattering. All measurements were done at 25° C. All spectra were corrected for background, and the final spectrum shown represents the average of at least three experiments.

isolated mitochondria = test: ATP synthesis in isolated mitochondria; assay type: biochemical, rat; conditions: mitochondria energized with low concentrations of succinate
Method: as §1
The rate of mitochondrial ATP synthesis was determined by measuring ATP in respiration buffer collected from isolated mitochondria 1 min after addition of […] (FIG. 6). ATP was assayed by HPLC. All experiments were carried out in triplicate, with n=3. […] Accordingly, aromatic-cationic peptides of the present disclosure are useful for increasing ATP synthesis in mitochondria and for treating diseases or disorder characterized by dysregulation of ATP synthesis.
as §2
Increase in electron flux in the electron transport chain can either result in increase in ATP synthesis or increase in electron leak and generation of free radicals. ATP synthesis in isolated mitochondria was assayed by HPLC. […] Accordingly, aromatic-cationic peptides of the present disclosure are useful for increasing ATP synthesis in mitochondria and for treating diseases or disorder characterized by dysregulation of ATP synthesis.

[3] = target: cardiolipin-cytochrome c complex (Equus caballus, UniProt P00004); test: Cytochrome c reduction in the presence of cardiolipin; assay type: biochemical; conditions: 500 μM GSH
Chain of cardiolipin-cytochrome c complex (P00004 2-105 limits assumed, one chain of several): as above
Method: Reduction of cytochrome c (20 μM) was induced by the addition of glutathione (500 μM) in the absence or presence of CL (100 μg/ml) (FIG. 15A). Reduction of cytochrome c was monitored by absorbance at 550 nm using a 96-well UV-VIS plate reader (Molecular Devices). Addition of CL decreased the rate of cytochrome c reduction by half.
The time course of cytochrome c reduction by ascorbate was recorded at 550 nm and 570 nm using a 96-well plate reader (Molecular Devices, Sunnyvale, Calif.). For all reactions, cytochrome c was preincubated with cardiolipin in the presence or absence of SS peptides for 1 min. […] Ascorbate (50 μM) was added to initiate the reduction of cytochrome c, and the absorbance was recorded for 5 min. The rate of reduction was calculated based on slope of the change in absorbance intensity of 550 nm over 570 nm.

[4] = target: T1, cytochrome c and cardiolipin (CL) (Equus caballus, UniProt P00004); test: Fluorescence quenching by cytochrome c in the presence of cardiolipin; assay type: binding, horse; conditions: CL 50 μg/ml
T1 construct: from tissue; host or cells: horse heart
T1 sequence (P00004 2-105 limits assumed): as the sequence (P00004 2-105 limits assumed, one chain of several) above
Method: Fluorescence emission of SS-19 (10 μM) was monitored in real time (Ex/Em=320 nm/420 nm) using Hitachi F-4500 fluorescence spectrophotometer. […] CL may potentiate the interaction between SS-19 and cytochrome c by serving as an anionic platform for the two cationic molecules.
The quenching by cytochrome c was not displaced by sequential additions of bovine serum albumin (500 μg/ml) (FIG. 13C, A+arrows).
SS-36 also contains the polarity-sensitive fluorescent amino acid aladan. […] Accordingly, aromatic-cationic peptides of the present disclosure are useful for the prevention or treatment of diseases or disorders characterized by dysregulation of cardiolipin and/or cytochrome c, and/or diseases or disorders characterized by dysregulation of the cardiolipin/cytochrome c interaction.
Interaction of SS peptides with horse heart cytochrome c in the absence or presence of free cardiolipin or cardiolipin/POPC (1:1) liposomes (prepared as described in Example 22) was examined by fluorescence quenching of [atn]SS-02 (λex/λem=320/420 nm) and [ald]SS-02 (λex/λem=360/510 nm) upon addition of cytochrome c (using a Hitachi F-4500 fluorescence spectrophotometer). The solvents used to dissolve cardiolipin and POPC had negligible effect on cytochrome c-dependent quenching of these peptides. All experiments were done in low ionic solution (deionized water) or 20 mM Hepes pH 7.4.

[5] = Fluorescence spectroscopy of labelled peptides with cardiolipin; assay type: binding; conditions: 1 μM peptide; CL 5 to 50 μg/ml
Source text: The peptides 2′,6′-Dmt-D-Arg-[…] (SS-19) and 2′,6′-Dmt-D-Arg-Phe-Lys-Ald-NH2 (SS-37) cationic peptides carry net positive charge at neutral pH. They are expected to associate with anionic phospholipid cardiolipin based on electrostatic interaction. The interaction of small peptides with lipid membranes can been studied using fluorescence spectroscopy (Surewicz and Epand, 1984). […] Polarity-sensitive fluorescent probes were incorporated into the peptides and fluorescence spectroscopy was used to determine if SS-19, SS-37 and SS-36 interact with CL.
The peptide 2′,6′-Dmt-D-Arg-Phe-(atn)Dap-NH2 (SS-19) contains anthraniloyl incorporated into diaminopropionic acid. Anthraniloyl derivatives fluoresce in the 410-420 nm range when excited at 320-330 nm (Hiratsuka T, 1983). The quantum yield of anthraniloyl derivatives is strongly dependent on the local environment, and can increase 5-fold going from water to 80% ethanol, together with a blue shift in the emission maxima (λ max) of <10 nm (Hiratsuka T, 1983). Fluorescence emission spectrum of SS-19 (1 μM) alone, and in the presence of increasing concentrations of CL (5 to 50 μg/ml), was monitored following excitation at 320 nm using Hitachi F-4500 fluorescence spectrophotometer.
The peptide 2′,6′-Dmt-D-Arg-Phe-Lys-Ald-NH2 (SS-37) contains an additional amino acid, aladan (Ald), which has been reported to be particularly sensitive to the polarity of its environment and it has been used to probe the electrostatic character of proteins (Cohen et al., 2002). When excited at 350 nm, λmax shifts from 542 nm in water to 409 nm in heptane, accompanied by a significant increase in quantal yield (Cohen et al., 2001). Fluorescence emission spectrum of SS-37 (1 μM) alone, and in the presence of increasing concentrations of CL, was monitored following excitation at 350 nm. Addition of CL (5 to 50 μg/ml) led to a 3-fold increase in quantal yield of SS-37 as well as a clear blue shift in λ max, from 525 nm without CL to 500 nm with 50 μg/ml CL (FIG. 11B).
The peptide 2′,6′-Dmt-D-Arg-Ald-Lys-NH2 (SS-36) contains Ald in place Phe^3 in SS-02. Fluorescence emission spectrum of SS-36 (1 μM) alone, and in the presence of increasing concentrations of CL, was monitored following excitation at 350 nm. SS-36 was the most sensitive to the addition of CL, with dramatic increase in quantal yield and blue shift observed with much lower added amounts of CL (1.25 to 5 μg/ml). The λmax shifted from 525 nm without CL to 500 nm with as little as 1.25 μg/ml CL, and quantal yield increased by more than 100-fold with the addition of 5 μg/ml of CL (FIG. 11C). […] Accordingly, aromatic-cationic peptides of the present disclosure are useful for the prevention or treatment of diseases or disorders characterized by dysregulation of cardiolipin.
Changes in the emission intensity of the [atn]SS-02 and the [ald]SS-02 were measured using a Hitachi F-4500 fluorescence spectrophotometer. The different solvents used to dissolve the various phospholipids (chloroform, methanol and ethanol) had negligible effect on the fluorescence spectrum of [atn]SS-02 and [ald]SS-02. All experiments were done in low ionic solution (deionized water) to optimize electrostatic interactions of peptides with phospholipids.
Increasing concentrations of cardiolipin (5, 10, 25, and 50 μg/mL) were added to 1 μM [atn]SS-02, and the emission intensity between 350 nm and 500 nm was measured.

Chain of cytochrome c (P00004 2-105 limits assumed): as the sequence (P00004 2-105 limits assumed, one chain of several) above

Row | Substance | rate (kinetics) of cytochrome c reduction (cytochrome c) | O2 consumption in state 3 respiration ([1]; 10 μM or 100 μM peptide, complex I or complex II substrates or TMPD/ascorbate) | electron flux measured by O2 consumption ([1]; 100 μM peptide, 0.5 mM succinate) | protection against CL-induced disappearance of negative Cotton effect [2] | rate of ATP production (isolated mitochondria) | CL inhibition of cytochrome c reduction [3] | quenching of fluorescence by cytochrome c in the presence of CL ([4]; 10 μM peptide, 2 μM cytochrome c) | displacement of quenching by bovine serum albumin in the presence of CL ([4]; BSA 500 μg/ml) | increase in quantal yield on addition of CL [5] [fold]
1 | F[dR]FK-NH2 [SS-20] | accelerate the kinetics of cytochrome c reduction | increases O2 consumption in state 3 respiration | promote electron flux | Protect the Heme Environment of Cytochrome c from the Acyl Chain of CL | significant increase in the rate of ATP production | prevented CL inhibition of cytochrome c reduction |  |  | 
2 | 2′,6′-Dmt-D-Arg-Phe-Lys-Ald-NH2 [SS-37] |  |  |  |  |  |  | similarly quenched | not displaced | 3
3 | D-Arg-Tyr-Lys-Phe-NH2 ([dR]YKF-NH2; N-terminus assumed; SMILES N=C(N)NCCC[C@@H](N)C(=O)N[C@@H](Cc1ccc(O)cc1)C(=O)N[C@@H](CCCCN)C(=O)N[C@@H](Cc1ccccc1)C(N)=O) [SPI-231] |  |  |  | Protect the Heme Environment of Cytochrome c from the Acyl Chain of CL |  | prevented CL inhibition of cytochrome c reduction |  |  | 
